Data on 4 compounds can be found in paper PMC9450014, “The evaluation of ADME and pharmacokinetic properties of decoquinate derivatives for the treatment of malaria” (Frontiers in Pharmacology, 2022).

The structures appear in SMILES notation. Converted amounts (≈) assume the structure as drawn. Where two headings read alike, the source gives them in different places.

For one data set, the system named is Pf NF54. Particulars: ref Beteck et al., cited from earlier work.
Data set [1] relates to multidrug resistant Pf K1. Details: method as in Beteck et al., 2018. The conditions noted are these: ref Beteck et al., 2018; read-out: IC50 against multidrug resistant Pf K1; cited from earlier work.
For data set [2] the following is noted: pH range of 4–9; ref EFSA 2003; cited from earlier work.
The conditions of data set [3]: cited from earlier work.
On the set-up of data set [4]: method as in Wang et al., 2014. The conditions noted are these: dosed as a micro-suspension in mice; ref Wang et al., 2014; cited from earlier work.
Data set [5] is described as follows: Lipophilicity, 1-octanol/phosphate buffer pH 7.4 (LogD7.4). The format is physicochemical. How it is done:
Stock solutions ([…]) of compounds were diluted to 100 μM in 96-well deep-well plate containing 1-octanol and phosphate buffer at pH 7.4. The plate was agitated on an orbital shaker at 750 rpm for 2 h. The organic and buffer layers of each well were transferred separately to a new analysis plate. The samples were analysed with the HPLC-diode array detection as described for kinetic solubility. Samples from both layers were analysed to determine LogD7.4 values.

Data set [6] is described as follows: Passive permeability, parallel artificial membrane permeation assay (PAMPA). The format is in vitro ADME. The conditions noted are these: donor pH 6.5, acceptor pH 7.4, 4 h, read-out: Permeability (LogPapp) (converted). As to the method:
A parallel artificial membrane permeation assay (PAMPA) was used to assess the passive permeability of compounds with a 96-well MultiScreen filter plate ([…] pore size, Millipore). The filter plate was precoated with 5% hexadecane in hexane. Stock solutions of compounds were diluted to 1 mM in a donor buffer (pH 6.5). Lucifer yellow was added to the apical wells of the precoated MultiScreen plate containing compound donor solution. The donor buffer solutions were spiked with each test compound (1 mM). The acceptor-buffer solution was prepared by adding 10 μL DMSO to 990 μL acceptor buffer (pH 7.4) and 250 μL were added to the basolateral (acceptor) wells. The donor plate was carefully inserted into the acceptor plate and incubated at room temperature for 4 h. After the incubation period, 50 μL of samples from the acceptor plate were transferred to a round bottom 96-well plate, together with 30 μL of donor buffer for matrix matching. Theoretical equilibrium samples for each test compound were prepared by adding 150 μL of donor solutions to 250 μL acceptor solutions and left at room temperature. These theoretical equilibrium samples represent complete transfer of the compound into the donor well. For the theoretical equilibrium samples, 80 μL were added to the analysis plate. Lastly, 160 μL of the internal standard carbamazepine (0.1 μM) was added to all acceptor and equilibrium samples. A portion of the sample containing Lucifer yellow was analyzed on a BioRad iMark^TM Microplate Absorbance Reader (BioRad, Hercules, CA, United States; excitation 490 nm, emission 510–570 nm) to determine that P app was within the acceptable range (<50 nm/s). Samples were analysed using reverse phase Gemini NX-C18 column (5 μM, 2.1 mm × 50 mm) with a Shimadzu HPLC coupled with an AB Sciex 3200 Q TRAP MS). The Papp for each compound was determined using. C=VD × VA/(VD+VA) ×A×t where VA = volume of donor compartment (0.15 cm^3), VD = volume of acceptor compartment (0.25 cm^3), A = accessible filter area (0.24 cm^2) and t = incubation time (14,400 s). […]

The next data set is described as follows: Plasma stability. The format is in vitro ADME. The conditions noted are these: human plasma; for half-life: pooled plasma, 37°C. How it is done:
Stock solutions of compounds in DMSO were used to spike pooled human plasma. Samples were transferred in duplicate to 6 different wells of a 96-deep well plate. An aliquot of each sample was immediately quenched with ice cold acetonitrile containing the internal standard carbamazepine (0.1 μM), after which the plate was incubated in a water bath (37°C for 1 h). Aliquots of samples were removed at 5, 15, 40, 60, and 180 min and quenched with ice cold acetonitrile. After samples of the final time point were precipitated, the supernatant was transferred to a round bottom 96-well plate for analysis by LC-MS/MS using a reverse phase Gemini NX-C18 column (5 μM, 2.1 mm × 50 mm) with a Shimadzu HPLC coupled with an AB Sciex 3200 Q TRAP MS). The peak area ratios were used to calculate the amount of parent compound remaining and t1/2 in plasma, using the following equations.
% Parent remaining % Parent= Normalised peak area of sample at timepoint/Normalised peak area of sample at t=0 x 100
Predicted t1/2 t1/2= −0.693/λ Where λ is the slope of the Ln % parent remaining vs. time curve.

Data set [7] can be described thus: Metabolic stability in mouse liver microsomes. The format is in vitro ADME. Particulars: for Estimated in vivo CLH MLM: *protein binding data not included; for half-life: mouse liver microsomes, NADPH, read-out: Degradation half-life MLM; for CLint scaled: mouse, liver microsomes, calculated from t1/2 in MLM, read-out: In vitro CLint MLM. As to the method: (§1) A 5-point metabolic stability assay in human and mouse liver microsomes were performed in duplicate in 96-well plates. Stock solution of RMB005, −059 and 060 prepared in DMSO were individually incubated at 37°C in mouse and pooled human liver microsomes (0.4 mg/mL). An aliquot was removed at 0 min and quenched with ice cold acetonitrile containing the internal standard carbamazepine (0.1 μM). The cofactor NADPH was added, and the reactions were subsequently stopped at time points 5, 10, 30, and 60 min by removal of an aliquot and quenching with ice cold acetonitrile containing the internal standard. The supernatant of all samples were analysed via LC-MS/MS analysis (reverse phase Gemini NX-C18 column and Shimadzu HPLC and AB Sciex 3200 Q TRAP MS). Calculation of in vitro t1/2, intrinsic clearance rate (CLint) and predicted in vivo clearance (CLH) was carried out using the following equations ([Obach 1999]). CLintClint= 0.693/t1/2(min) ×Volume of incubation (μL)/microsomal protein (μg) Where t1/2 is calculated in minutes.
(§2) Predicted in vivo CLH CLH=Q × fu(plasma)×CLint/fu(mic)/Q+ fu(plasma)× CLint/fu(mic) Where Q is the hepatic blood flow of mouse (90 mL/min/kg) or human (20.7 mL/min/kg). Fu(plasma) is the unbound drug fraction in the plasma and fu(mic) is the unbound fraction in the microsomes.
(§3) The equation below was used in the case of RMB059 and -060, where protein-binding data were not available. CLH=Q × CLint/Q+ CLint

Data set [8] can be described thus: Metabolic stability in human liver microsomes. The format is in vitro ADME. Particulars: for Estimated in vivo CLH HLM: *protein binding data not included; for CLint scaled: human, calculated from t1/2 in HLM, read-out: In vitro CLint HLM; for CLint scaled / half-life: pooled liver microsomes; for half-life: human liver microsomes, NADPH, read-out: Degradation half-life HLM. As to the method: as §1, §2, §3

Data set [9] deals with multidrug resistant Pf W2. Details: method as in Beteck et al., 2018. The conditions noted are these: ref Beteck et al., 2018; read-out: Activity against multidrug resistant Pf W2; cited from earlier work.
Another data set deals with Toxoplasma gondii (Tg). Further details: method as in Beteck et al., 2018. Particulars: in vitro; ref Beteck et al., 2018; read-out: IC50 against Toxoplasma gondii; cited from earlier work.
The subject of the next data set is Neospora caninum. Details: method as in Beteck et al., 2018. The conditions noted are these: in vitro; ref Beteck et al., 2018; read-out: IC50 against Neospora caninum; cited from earlier work.
In data set [10] the test system is P. berghei sporozoite liver stages. Particulars: abstract; no reference given; cited from earlier work.
A short description of data set [11]: Kinetic solubility in PBS (HPLC-DAD). The format is physicochemical. The conditions noted are these: phosphate buffer saline (PBS); for solubility kinetic at 2 h: aqueous buffer, kinetic from dmso stock. How it is done:
Stock concentrations of test samples (10 mM) were prepared in DMSO and diluted to a final concentration of […] in phosphate buffer saline (PBS) solutions at pH 2, 6.5, and 7.4 in flat-bottomed 96-well plates. A three-point calibration curve of each control and test compound was prepared from stock solutions in DMSO. Plates were agitated on an orbital shaker at room temperature for 2 h at 200 rpm and subsequently analysed using a reverse phase Gemini NX-C18 column (5 μM, 2.1 mm × 50 mm) with an Agilent 1,200 Rapid Resolution HPLC and diode array detection.

On the set-up of data set [12]: method as in Tanner et al., 2019. The conditions noted are these: ref Tanner et al., 2019; cited from earlier work.
The conditions of data set [13]: cited from earlier work. This is another data set of the same source.
Setting [14] is: 2018, read-out: IC50 against Pf NF54.

As usually defined, the LogD is the decadic logarithm of the distribution of all forms, ionised or not, between an organic phase and buffer at a given pH. The term logD denotes lipophilicity at a set pH, counting ionised and neutral species. Higher therefore signals higher lipophilicity. In general, half-life refers to how long it takes for the measured level to halve. By solubility (kinetic) is commonly meant the concentration staying in solution when a stock, usually in DMSO, is diluted into the medium. Broadly, the solubility is the dissolved amount per volume that the medium holds. A lower solubility goes with little dissolved substance.

Turning to `CCCCCCCCCCOc1cc2c(O)c(C(=O)OCC)cnc2cc1OCC` [DQ, decoquinate], the IC50 with Pf NF54 (Pf NF54, 2018, read-out: NF54 IC50 (line in the PK figures, in vitro IC50 in the discussion)) was 26 nM; in the data set with Pf NF54 (2016, read-out: In vitro activity against chloroquine-sensitive NF54 asexual parasites) it was 26.6 nM; in the data set on Pf NF54 (setting [14]), 26.6 nM; in data set [1], 64.9 nM. For the same compound, the “Solubility in buffered aqueous solutions” value in [2] was 0.024 µM (≈ 0.01 µg/mL). In addition, in data set [2], the “Solubility in buffered water” value was 0.01 µg/mL (≈ 0.0239 µM). In addition, the “Octanol/water partition coefficient (Log Kow or LogP)” value in [3] (25°C, pH 5, 7, or 9, ref Bampidis et al., 2019) was at least 5.7. Moreover, the log distribution coefficient (LogD) in data set [3] (ref Burger et al., 2018) is given as 7.8. Moreover, the “Relative BA” value in data set [4] was 6%.

Regarding `CCCCCCCCCCOc1cc2c(OC(=O)N3CCN(S(C)(=O)=O)C3=O)c(C(=O)OCC)cnc2cc1OCC` [RMB060], the logD at 2 h in data set [5] was 2.9. Also, the Papp at 4 h, 1 mM in [6] is 0.501 ×10⁻⁶ cm/s. The “Plasma stability (in words)” value in the data set “Plasma stability” is “high degree of lability”. Besides, the half-life in the data set “Plasma stability” is below 8 min; in data set [7], 14.5 min; in data set [8], 13.1 min. Also, the “Estimated in vivo CLH MLM” value in data set [7] is 77.2* mL/min/kg. The figures for the CLint scaled in data set [7] and in data set [8] were 541 mL/min/kg and 183 mL/min/kg, respectively. Moreover, the “Estimated in vivo CLH HLM” value in [8] is listed as 18.6* mL/min/kg. In addition, the IC50 is 1.4 nM with Pf NF54 (setting [14]); 1.3 nM in [1]; 1.1 nM in data set [9]; 1.1 nM in the data set with Toxoplasma gondii (Tg); 0.6 nM in the data set on Neospora caninum. In addition, the “Activities against P. berghei sporozoite liver stages (in words)” value in data set [10] was “sub-nanomolar”.

As for `CCCCCCCCCCOc1cc2c(OC(=O)N3CCOCC3)c(C(=O)OCC)cnc2cc1OCC` [RMB059], the solubility (kinetic) at 2 h is below 5 µM in [11] (PBS pH 2, read-out: Kinetic solubility pH 2); below 5 µM in [11] (PBS pH 6.5, read-out: Kinetic solubility pH 6.5); below 5 µM in data set [11] (PBS pH 7.4, read-out: Kinetic solubility pH 7.4). The compound also returned a solubility at 2 h in [11] (all pH levels tested (pH 2, 6.5, 7.4)) below 5 µM. The logD at 2 h in data set [5] was 2.9. Further, the Papp at 4 h, 1 mM in data set [6] is 1.58 ×10⁻⁶ cm/s. Besides, the “Plasma stability (in words)” value in “Plasma stability” was “high degree of lability”. The half-life in the data set “Plasma stability” is 66 min; in data set [7] it was 16.6 min; in [8] it was 10.6 min. For the same compound, in [7], the “Estimated in vivo CLH MLM” value was 75.2* mL/min/kg. The values for the CLint scaled in [7] and in [8] were 457 mL/min/kg and 410 mL/min/kg, respectively. Moreover, the “Estimated in vivo CLH HLM” value in data set [8] is given as 19.7* mL/min/kg. Also, the IC50 is 6.8 nM in the data set with Pf NF54 (setting [14]), 14.4 nM in [1] and 5.7 nM in data set [9].

In the case of `CCCCCCCCCCOc1cc2c(=O)c(C(=O)NCCOCCO)cn(CCO)c2cc1OCC` [RMB073], the “Predicted kinetic solubility at pH 7.4” value in [12] is reported as above 150 µM. Also, the Plasma half-life result in data set [13] was “greater than 6 h”.
